Literature values as cited in US20090036693A1, “METHOD OF PURIFYING UBIQUINONE-10” (Kyowa Hakko Kogyo Co., Ltd., priority 2005, published 2009).

Details: solvent methanol; background statement

solubility in methanol: ≤ 5 mg/mL
Structure (SMILES): COC1=C(OC)C(=O)C(C/C=C(\C)CC/C=C(\C)CC/C=C(\C)CC/C=C(\C)CC/C=C(\C)CC/C=C(\C)CC/C=C(\C)CC/C=C(\C)CC/C=C(\C)CCC=C(C)C)=C(C)C1=O [ubiquinone-10]
